Reference: US12371464B2, “Polypeptides and uses thereof” (MEDIMMUNE LIMITED, priority 2020, dated 2025)
Numbered stars: 1 amine (or outer) side, 2 acyl side, 3 side chain; on linkers, the order of the positions; unused ones are H or OH. Bridge positions count the residues as written; N and C are the ends. Square brackets hold non-standard residues; d marks the D form. Side chains are listed from the residue outwards. Peptide text beside a SMILES is read from it. * marks the point of attachment. C18 diacid = O=C(O)CCCCCCCCCCCCCCCCC(=O)*; γGlu = O=C(O)[C@H](CCC(=O)[*:2])N[*:1]; Aib = CC(C)(N)C(=O)O

Test: Thioflavin T fibrillation assay
Format: physicochemical
Conditions: 1 mg/mL in 25 mM sodium acetate buffer pH 4.0, 37° C., 6 days, orbital shaking; >144 h = no increase
Outline: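 Peptides at 1 mg/mL in 25 mM sodium acetate pH 4.0 were mixed with ThT (0.25 mM stock) and held 6 days at 37 °C with intermittent orbital shaking at 500–750 rpm. Fluorescence (ex 444/em 480 nm) was read every 30 min, with buffer baseline correction and 5 replicates. Value: mean time to a detectable fluorescence increase.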

Time taken to detect increase in fluorescence intensity [h]	Compound
>144	CC[C@H](C)[C@H](NC(=O)[C@@H]1CCCN1C(=O)CNC(=O)[C@H](Cc1ccccc1)NC(=O)[C@H](CC(N)=O)NC(=O)C(C)(C)NC(=O)[C@H](CO)NC(=O)[C@H](CO)NC(=O)[C@H](Cc1c[nH]cn1)NC(=O)[C@H](CCCNC(=N)N)NC(=O)[C@H](CC(C)C)NC(=O)[C@H](Cc1ccccc1)NC(=O)[C@H](CC(N)=O)NC(=O)[C@H](C)NC(=O)[C@H](CC(C)C)NC(=O)[C@H](CCCNC(=N)N)NC(=O)[C@H](CCC(N)=O)NC(=O)[C@@H](NC(=O)[C@H](C)NC(=O)[C@@H]1CSSC[C@H](NC(=O)[C@@H](N)CCCCNC(=O)CC[C@H](NC(=O)CCCCCCCCCCCCCCCCC(=O)O)C(=O)O)C(=O)N[C@@H](CC(N)=O)C(=O)N[C@@H]([C@@H](C)O)C(=O)N[C@@H](C)C(=O)N[C@@H]([C@@H](C)O)C(=O)N1)[C@@H](C)O)C(=O)N[C@@H](CC(C)C)C(=O)N1CCC[C@H]1C(=O)N1CCC[C@H]1C(=O)N[C@H](C(=O)N[C@@H](CC(N)=O)C(=O)N[C@H](C(=O)NCC(=O)N[C@@H](CO)C(=O)N[C@@H](CC(N)=O)C(=O)N[C@H](C(=O)N[C@@H](Cc1ccc(O)cc1)C(N)=O)[C@@H](C)O)C(C)C)[C@@H](C)O [Peptide 48, K(γE-C18diacid)[CNTATC]ATQRLANFLRHSS(Aib)NFGPILPPTNVGSNTY-amide] (H-K([γGlu-C18 diacid])CNTATCATQRLANFLRHSS[Aib]NFGPILPPTNVGSNTY-NH2; disulfide 2-7; N-terminus assumed)
>144	CC[C@H](C)[C@H](NC(=O)[C@@H]1CCCN1C(=O)CNC(=O)[C@H](Cc1ccccc1)NC(=O)[C@H](CC(N)=O)NC(=O)C(C)(C)NC(=O)[C@H](CO)NC(=O)[C@H](CO)NC(=O)[C@H](Cc1c[nH]cn1)NC(=O)[C@H](CCCNC(=N)N)NC(=O)[C@H](CC(C)C)NC(=O)[C@H](Cc1ccccc1)NC(=O)[C@H](CC(N)=O)NC(=O)[C@H](C)NC(=O)[C@H](CC(C)C)NC(=O)[C@H](CCCNC(=N)N)NC(=O)[C@H](CCC(N)=O)NC(=O)[C@@H](NC(=O)[C@H](C)NC(=O)[C@@H]1CSSC[C@H](NC(=O)[C@H](CCCCN)NC(=O)[C@@H](N)CCCCNC(=O)CC[C@H](NC(=O)CC[C@H](NC(=O)CCCCCCCCCCCCCCCCC(=O)O)C(=O)O)C(=O)O)C(=O)N[C@@H](CC(N)=O)C(=O)N[C@@H]([C@@H](C)O)C(=O)N[C@@H](C)C(=O)N[C@@H]([C@@H](C)O)C(=O)N1)[C@@H](C)O)C(=O)N[C@@H](CC(C)C)C(=O)N1CCC[C@H]1C(=O)N1CCC[C@H]1C(=O)N[C@H](C(=O)N[C@@H](CC(N)=O)C(=O)N[C@H](C(=O)NCC(=O)N[C@@H](CO)C(=O)N[C@@H](CC(N)=O)C(=O)N[C@H](C(=O)N[C@@H](Cc1ccc(O)cc1)C(N)=O)[C@@H](C)O)C(C)C)[C@@H](C)O [Peptide 66, K(γE-γE-C18diacid)K[CNTATC]ATQRLANFLRHSS(Aib)NFGPILPPTNVGSNTY-amide] (H-K([γGlu-γGlu-C18 diacid])KCNTATCATQRLANFLRHSS[Aib]NFGPILPPTNVGSNTY-NH2; disulfide 3-8; N-terminus assumed)
>144	CC[C@H](C)[C@H](NC(=O)[C@@H]1CCCN1C(=O)CNC(=O)[C@H](Cc1ccccc1)NC(=O)[C@H](CC(N)=O)NC(=O)C(C)(C)NC(=O)[C@H](CO)NC(=O)[C@H](CO)NC(=O)[C@H](Cc1c[nH]cn1)NC(=O)[C@@H](NC(=O)[C@H](CC(C)C)NC(=O)[C@H](Cc1ccccc1)NC(=O)[C@H](CC(N)=O)NC(=O)[C@H](C)NC(=O)[C@H](CC(C)C)NC(=O)[C@H](CCCNC(=N)N)NC(=O)[C@H](CCC(N)=O)NC(=O)[C@@H](NC(=O)[C@H](C)NC(=O)[C@@H]1CSSC[C@H](NC(=O)[C@H](CCCCN)NC(=O)[C@@H](N)CCCCNC(=O)CC[C@H](NC(=O)CC[C@H](NC(=O)CCCCCCCCCCCCCCCCC(=O)O)C(=O)O)C(=O)O)C(=O)N[C@@H](CC(N)=O)C(=O)N[C@@H]([C@@H](C)O)C(=O)N[C@@H](C)C(=O)N[C@@H]([C@@H](C)O)C(=O)N1)[C@@H](C)O)C(C)C)C(=O)N[C@@H](CC(C)C)C(=O)N1CCC[C@H]1C(=O)N1CCC[C@H]1C(=O)N[C@H](C(=O)N[C@@H](CCCNC(=N)N)C(=O)N[C@H](C(=O)NCC(=O)N[C@@H](CO)C(=O)N[C@@H](CC(N)=O)C(=O)N[C@H](C(=O)N[C@@H](Cc1ccc(O)cc1)C(N)=O)[C@@H](C)O)C(C)C)[C@@H](C)O [Peptide 70, K(γE-γE-C18diacid)K[CNTATC]ATQRLANFLVHSS(Aib)NFGPILPPTRVGSNTY-amide] (H-K([γGlu-γGlu-C18 diacid])KCNTATCATQRLANFLVHSS[Aib]NFGPILPPTRVGSNTY-NH2; disulfide 3-8; N-terminus assumed)
>144	CC[C@H](C)[C@H](NC(=O)[C@@H]1CCCN1C(=O)CNC(=O)[C@H](Cc1ccccc1)NC(=O)[C@H](CC(N)=O)NC(=O)C(C)(C)NC(=O)[C@H](CO)NC(=O)[C@H](CO)NC(=O)[C@H](Cc1c[nH]cn1)NC(=O)[C@@H](NC(=O)[C@H](CC(C)C)NC(=O)[C@H](Cc1ccccc1)NC(=O)[C@H](CC(N)=O)NC(=O)[C@H](C)NC(=O)[C@H](CC(C)C)NC(=O)[C@H](CCCNC(=N)N)NC(=O)[C@H](CCC(N)=O)NC(=O)[C@@H](NC(=O)[C@H](C)NC(=O)[C@@H]1CSSC[C@H](NC(=O)[C@H](CCCCN)NC(=O)[C@@H](N)CCCCNC(=O)CC[C@H](NC(=O)CCCCCCCCCCCCCCCCC(=O)O)C(=O)O)C(=O)N[C@@H](CC(N)=O)C(=O)N[C@@H]([C@@H](C)O)C(=O)N[C@@H](C)C(=O)N[C@@H]([C@@H](C)O)C(=O)N1)[C@@H](C)O)C(C)C)C(=O)N[C@@H](CC(C)C)C(=O)N1CCC[C@H]1C(=O)N1CCC[C@H]1C(=O)N[C@H](C(=O)NC(C)(C)C(=O)N[C@H](C(=O)NCC(=O)N[C@@H](CO)C(=O)N[C@@H](CC(N)=O)C(=O)N[C@H](C(=O)N[C@@H](Cc1ccc(O)cc1)C(N)=O)[C@@H](C)O)C(C)C)[C@@H](C)O [Peptide 80, K(γE-C18diacid)K[CNTATC]ATQRLANFLVHSS(Aib)NFGPILPPT(Aib)VGSNTY-amide] (H-K([γGlu-C18 diacid])KCNTATCATQRLANFLVHSS[Aib]NFGPILPPT[Aib]VGSNTY-NH2; disulfide 3-8; N-terminus assumed)
<5	CC[C@H](C)[C@H](NC(=O)[C@@H]1CCCN1C(=O)CNC(=O)[C@H](Cc1ccccc1)NC(=O)[C@H](CC(N)=O)NC(=O)[C@H](CC(N)=O)NC(=O)[C@H](CO)NC(=O)[C@H](CO)NC(=O)[C@H](Cc1c[nH]cn1)NC(=O)[C@@H](NC(=O)[C@H](CC(C)C)NC(=O)[C@H](Cc1ccccc1)NC(=O)[C@H](CC(N)=O)NC(=O)[C@H](C)NC(=O)[C@H](CC(C)C)NC(=O)[C@H](CCCNC(=N)N)NC(=O)[C@H](CCC(N)=O)NC(=O)[C@@H](NC(=O)[C@H](C)NC(=O)[C@@H]1CSSC[C@H](NC(=O)[C@@H](N)CCCCNC(=O)CC[C@H](NC(=O)CCCCCCCCCCCCCCCCC(=O)O)C(=O)O)C(=O)N[C@@H](CC(N)=O)C(=O)N[C@@H]([C@@H](C)O)C(=O)N[C@@H](C)C(=O)N[C@@H]([C@@H](C)O)C(=O)N1)[C@@H](C)O)C(C)C)C(=O)N[C@H](CC(C)C)C(=O)N1CCC[C@H]1C(=O)N1CCC[C@H]1C(=O)N[C@H](C(=O)N[C@@H](CC(N)=O)C(=O)N[C@H](C(=O)NCC(=O)N[C@@H](CO)C(=O)N[C@@H](CC(N)=O)C(=O)N[C@H](C(=O)N[C@@H](Cc1ccc(O)cc1)C(N)=O)[C@@H](C)O)C(C)C)[C@@H](C)O [Peptide 103, K(γE-C18diacid)[CNTATC]ATQRLANFLVHSSNNFGPI(dL)PPTNVGSNTY-amide] (H-K([γGlu-C18 diacid])CNTATCATQRLANFLVHSSNNFGPI[dL]PPTNVGSNTY-NH2; disulfide 2-7; N-terminus assumed)
<5	CC[C@H](C)[C@H](NC(=O)[C@@H]1CCCN1C(=O)CNC(=O)[C@H](Cc1ccccc1)NC(=O)[C@H](CC(N)=O)NC(=O)[C@H](CC(N)=O)NC(=O)[C@H](CO)NC(=O)[C@H](CO)NC(=O)[C@H](Cc1c[nH]cn1)NC(=O)[C@@H](NC(=O)[C@H](CC(C)C)NC(=O)[C@H](Cc1ccccc1)NC(=O)[C@H](CC(N)=O)NC(=O)[C@H](C)NC(=O)[C@H](CC(C)C)NC(=O)[C@H](CCCNC(=N)N)NC(=O)[C@H](CCC(N)=O)NC(=O)[C@@H](NC(=O)[C@H](C)NC(=O)[C@@H]1CSSC[C@H](NC(=O)[C@@H](N)CCCCNC(=O)CC[C@H](NC(=O)CCCCCCCCCCCCCCCCC(=O)O)C(=O)O)C(=O)N[C@@H](CC(N)=O)C(=O)N[C@@H]([C@@H](C)O)C(=O)N[C@@H](C)C(=O)N[C@@H]([C@@H](C)O)C(=O)N1)[C@@H](C)O)C(C)C)C(=O)N[C@@H](CC(C)C)C(=O)N1CCC[C@@H]1C(=O)N1CCC[C@H]1C(=O)N[C@H](C(=O)N[C@@H](CC(N)=O)C(=O)N[C@H](C(=O)NCC(=O)N[C@@H](CO)C(=O)N[C@@H](CC(N)=O)C(=O)N[C@H](C(=O)N[C@@H](Cc1ccc(O)cc1)C(N)=O)[C@@H](C)O)C(C)C)[C@@H](C)O [Peptide 104] (H-K([γGlu-C18 diacid])CNTATCATQRLANFLVHSSNNFGPIL[dP]PTNVGSNTY-NH2; disulfide 2-7; N-terminus assumed)
